Assay results taken from patent US11946094B2, “Combination therapies and methods of use thereof” (Augusta University Research Institute, Inc., priority 2017, dated 2024).

Assays:
OVCAR-8 cells [1] = test: Drug titration (GI50) with S100A11 siRNA knockdown versus sham control; type: cell-based; settings: serial dilution of drug, three replicates
Experimental: Statistical analyses were performed using the R language and environment for statistical computing (R version 3.3.1; R Foundation for Statistical Computing) and Microsoft Excel. Student's T-test (two-tailed, unpaired) was used to calculate p-values for confirmation of drug effect. GI50 values were calculated using a four-parameter logistic function to obtain a classical “s” curve for drug titrations using SigmaPlot (Systat Software, San Jose, CA). Heatmaps were created using the R package “pheatmap”. Clustering was done with WPGMA hierarchical clustering. QIAGEN's Ingenuity Pathway Analysis (IPA®, QIAGEN Redwood City) was utilized for assessment of network and pathway contributions of top genes identified using the NCI-60 correlations.
An important measure of synergism is the dosage reduction of a therapeutic compound by another agent. Titration screening with several compounds was performed to compare growth curves with and without knockdown of S100A11 or KLHL5. […] KLHL5 also was synergistic with other cell cycle inhibitors and PI3K-AKT-mTOR inhibitors. Titration curves and calculation of GI50 were performed for twenty-four compounds.

OVCAR-8 cells [2] = test: Drug-siRNA combination screen: 346-compound anticancer library at 100 nM, CCK-8 viability; settings: OVCAR-8; for Score (sum of observed SD values for 18 genes): drug 100 nM plus siRNA knockdown of each of 18 genes, distance VAB−VA×VB in SD, single gene contributes at most +5 / −5, negative = synergy, positive = antagonism
Experimental: Comparisons of drug effect were performed using data generated on the same day. A minimum of two replicates was performed with drug library screening and a minimum of three replicates was done for all other tests.
Combinatorial effects were classified using two measures of combinatorial action: 1) the coefficient of drug interaction (CDI), defined as (VAB/(VA×VB)) and 2) the distance in standard deviation (SD) of VAB−(VA×VB). […] In confirmation studies significance was determined using a Student's T-test (two-tailed, unpaired) with p<0.05 indicating significance.
To measure the effect of a gene on drug effect, comparisons were made between high expressers of each gene and the wild type cells exposed to sham reagents.
In theory, CDI<1 is indicative of synergy while CDI>1 is indicative of antagonism or additive effect in a multiplicative model.

AB1-HA tumor model = settings: CTX treatment at Day 9; cited from earlier work

dose reduction of GI50 value by S100A11 siRNA versus sham control (OVCAR-8 cells [1]) | Compound | Score (sum of observed SD values for 18 genes) (OVCAR-8 cells [2]) | other results
5.56 fold | O=C(/C=C/c1cccc(S(=O)(=O)Nc2ccccc2)c1)NO [Belinostat] | −20.81 SD | synergy / antagonism of drug with gene knockdowns, in words (OVCAR-8 cells [2]; drug 100 nM, panel of 18 siRNA knockdowns): mostly synergistic
 | O=P1(N(CCCl)CCCl)NCCCO1 (stereo not drawn) [Cyclophosphamide] |  | cure rate (AB1-HA tumor model): 75%
5.53 fold | Cn1cc(CNCC2CCN(c3ncc(C(=O)NO)cn3)CC2)c2ccccc21 [JNJ-26481585, Quisinostat] | −2.31 SD | 
 | USP40: siRNA knocking down USP40; sense GGAAACUAGCUGUUAUACAtt (SEQ ID NO 35) (sense GGAAACUAGCUGUUAUACANN; antisense UGUAUAACAGCUAGUUUCCNN; listed as RNA, chemistry not given here) |  | number of tested HDACi highly synergistic with the gene knockdown (OVCAR-8 cells [2]; 12 tested HDACi): at least six; number of antagonistic/additive or highly antagonistic compounds with the gene knockdown (OVCAR-8 cells [2]; 346 compounds): Twelve or fewer
 | WYE-354 | −13.86 SD | 
